This note sets out measurements from US12492232B2, “Methods for producing proteins” (South Australian Health and Medical Research Institute …, priority 2018, dated 2025).

Entries after “also recorded” stand apart in the source; their conditions may differ.

The test system of one assay is TSC1/TSC2. The experiment in a line: GAP assay: TSC1/TSC2-promoted hydrolysis of GTP bound to recombinant GST-Rheb. The assay is classed as biochemical. The following applies: FLAG-TSC1, FLAG-TSC2, [α-32P]GTP, n=3. The text has this:
FIGS. 1A-1B: Recombinant GST-Rheb proteins were subjected to GAP assay in the presence of FLAG-TSC1, FLAG-TSC2 and [α-^32P] GTP. GST-Rheb bound to GDP or GTP was pulled down using glutathione beads and the nucleotides were then separated by thin-layer chromatography and visualized by phosphorimager. The positions of GDP and GTP are shown (FIG. 1A). […] FIGS. 1C-1D: CHO cells were co-transfected using Lipofectamine 3000 with vectors encoding wildtype (WT) Rheb or the indicated mutants and TSC1/2 as indicated. 36 h after transfection, cells were transferred to Ham's F12 media lacking FBS for 16 h. Cells were the transferred to Dulbecco's phosphate-buffered saline (D-PBS, which lacks amino acids) for 1 h before cell lysates were harvested for SDS-PAGE and Western Blotting analysis using the indicated antibodies. […] This effect is consistent with lack of sensitivity of the mutant Rhebs to TSC1/TSC2. Thus the Rheb mutants S21L, T23M, G29S, Y35N and E40K promote mTORC1 signalling in the absence of upstream activation due to insensitivity to the GAP activity of the TSC complex.
A) Recombinant GST-Rheb proteins were subjected to GTPase assays in the presence of FLAG-TSC1, FLAG-TSC2 and [α-^32P]GTP. Nucleotide-bound GST-Rheb was purified from the reaction mixture using 20 μl glutathione bead slurry. Radioactive GDP and GTP were separated by thin-layer chromatography and visualized by phosphorimager.

The test system of the next assay is ExpiCHO-S™ cells. The experiment in a line: Rabbit IgG secretion by ExpiCHO-S cells stably expressing Rheb variants (Easy-Titer Rabbit IgG Assay). The assay is classed as cell-based. The following applies: single replicate; compared to Rheb-WT or Rheb-Y35N. Here is the method: Materials and Methods: ExpiCHO-S™ cells were purchased from ThermoFischer Scientific and cultured in ExpiCHO™ Expression Medium at 37° C. at 8% CO2. […] Transfected cells were grown in 600 μg/mL […] for 6 weeks. Surviving cells were plated as single cells in a 96-well plate and monoclonal colonies selected for FLAG-Rheb expression.
Rabbit IgG secretion was determined using the ExpiCHO™ Expression system according to the manufacturer's instructions. Briefly, ExpiCHO™ cells expressing either endogenous Rheb or stably expressing exogenous Rheb were seeded at 6×10^6 cells/mL in 25 mL of ExpiCHO™ Expression Medium and transfected with 20 μg of a pcDNA3.1 vector encoding heavy and light chains of Rabbit IgG at a 1:2 ratio of heavy chain:light chain using ExpiFectamine™ CHO Reagent. 24 hours after transfection, cells were feed with ExpiCHO™ Feed and ExpiFectamine™ CHO Enhancer and transferred to 32° C., 5% CO2. Cells were allowed to grow for 10 days with 100 μL samples taken every day. After 10 days, Cells were pelleted by centrifugation at 4000×g for 30 minutes at 4° C. and the supernatant filtered through a […] PVFD filter and collected. IgG yield was determined using Easy-Titer™ Rabbit IgG Assay kit and calculated from a standard curve.

Turning to “Rheb-T23M: human Rheb protein with a methionine variant at residue 23 (T23M), SEQ ID NO. 3”, the “hydrolysis of GTP bound to Rheb promoted by TSC1/TSC2” value in the assay on TSC1/TSC2 is listed as “completely unable to promote hydrolysis of GTP; also recorded: did not promote hydrolysis of GTP”. Also, the “rate of IgG secretion determined daily over 10 days” value with ExpiCHO-S™ cells is “maintain a constant rate of IgG secretion over a longer period”.
